From patent publication US20110144045A1, “USE OF FUMAGILLIN AND THE DERIVATIVES THEREOF TO INCREASE THE BIOAVAILABILITY OF THE MACROCYCLIC LACTONES” (INSTITUT NATIONAL DE LA RECHERCHE AGRONOMIQUE, priority 2005, published 2011)
Each block holds one compound with its values, some of them ahead of it.

Experiments:
rat hepatocytes [1] = settings: rat hepatocytes in primary culture; Dupuy et al., 2001b; 2003; cited from earlier work
murine Pgp = murine Pgp (Mus musculus, UniProt P21447); assay: Intracellular accumulation of rhodamine 123 in Mdr1a-LLCPK1 cells (Pgp transport function); type: cell-based
murine Pgp, sequence (P21447 whole entry): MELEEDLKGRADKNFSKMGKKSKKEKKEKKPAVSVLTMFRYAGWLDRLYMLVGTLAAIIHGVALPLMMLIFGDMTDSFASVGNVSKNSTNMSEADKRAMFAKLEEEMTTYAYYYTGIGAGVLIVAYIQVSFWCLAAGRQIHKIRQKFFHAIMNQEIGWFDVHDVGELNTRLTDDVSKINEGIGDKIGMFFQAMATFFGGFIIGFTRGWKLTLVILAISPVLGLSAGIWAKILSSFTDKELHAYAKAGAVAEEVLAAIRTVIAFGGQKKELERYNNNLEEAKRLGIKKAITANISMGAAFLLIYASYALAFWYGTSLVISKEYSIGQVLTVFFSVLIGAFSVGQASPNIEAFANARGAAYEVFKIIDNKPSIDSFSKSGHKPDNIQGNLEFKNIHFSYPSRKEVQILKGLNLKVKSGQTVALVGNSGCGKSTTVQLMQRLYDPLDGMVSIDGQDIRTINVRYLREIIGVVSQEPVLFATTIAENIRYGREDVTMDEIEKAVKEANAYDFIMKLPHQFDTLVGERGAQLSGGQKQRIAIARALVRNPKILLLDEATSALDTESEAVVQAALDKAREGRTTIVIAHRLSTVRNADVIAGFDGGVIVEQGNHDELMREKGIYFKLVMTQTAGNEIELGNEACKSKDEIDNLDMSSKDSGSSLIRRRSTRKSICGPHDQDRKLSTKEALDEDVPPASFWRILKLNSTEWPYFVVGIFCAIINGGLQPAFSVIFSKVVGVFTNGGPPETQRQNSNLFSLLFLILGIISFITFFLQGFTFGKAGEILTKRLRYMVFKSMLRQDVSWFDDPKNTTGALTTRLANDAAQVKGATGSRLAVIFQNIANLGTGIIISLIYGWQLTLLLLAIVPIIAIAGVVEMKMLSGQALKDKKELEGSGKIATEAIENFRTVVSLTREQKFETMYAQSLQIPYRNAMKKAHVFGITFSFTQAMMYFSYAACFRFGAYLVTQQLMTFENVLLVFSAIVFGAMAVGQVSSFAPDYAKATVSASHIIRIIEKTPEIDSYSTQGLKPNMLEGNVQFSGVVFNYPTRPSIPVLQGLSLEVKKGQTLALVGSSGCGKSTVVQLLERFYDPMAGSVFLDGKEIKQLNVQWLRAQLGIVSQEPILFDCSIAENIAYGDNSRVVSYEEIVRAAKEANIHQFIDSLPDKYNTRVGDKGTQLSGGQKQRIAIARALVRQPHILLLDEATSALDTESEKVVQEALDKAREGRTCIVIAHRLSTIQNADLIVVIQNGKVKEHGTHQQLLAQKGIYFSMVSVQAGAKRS
Experimental: (§1) They are cultured for 48 hours at 37° C. to reach confluence in 1 ml of medium without G418. The medium is eliminated and the cells washed with 0.5 ml PBS 1×. […] The cells are lysed by the addition of 0.3 ml PBS 1×/0.5% sodium dodecyl sulphate (50/50, v/v) in each well. After 10 minutes at ambient temperature, 0.3 ml PBS 1× is added to each well then the total lysate (0.6 ml) is transferred to a 2-ml plastic tube and stored at −20° C. until it is analyzed by spectrofluorometry.
(§2) The results obtained were modelled according to the Hill model (Scientist software, Micromath research, Saint Louis, USA).

rat hepatocytes [2] = assay: Intracellular quantity of 14C moxidectin in primary-cultured rat hepatocytes +/- fumagillin; type: cell-based
Experimental: The isolation and culturing of rat hepatocytes has been described previously (Dupuy et al., 2001b). The hepatocytes are distributed into culture dishes and kept at 37° C. for 12 hours (oven 5% CO2). The cells are cultured in the presence of 5 μM ^14C moxidectin (control) +/−100 μM fumagillin. After 0, 6, 24, 48 and 72 h the incubations are stopped (n=3 for each treatment), the media collected and the hepatocytes harvested by mechanical disassociation in phosphate buffer saline (PBS 1×). The media and the hepatocytes are stored at −20° C. until analysis by high-performance liquid chromatography (HPLC).
^14C moxidectin is quantified in the medium and the hepatocytes by a HPLC technique coupled with an in-line radioactivity detection (Dupuy et al., 2001b). This technique allows ^14C moxidectin and its main metabolite (C29 monohydroxyethyl moxidectin) in rat hepatocytes to be detected and quantified. The radioactivity is measured by liquid scintillation counting (Kontron Beta V counter). The total initial radioactivity of the initial medium at 5 μM ^14C moxidectin +/−100 μM fumagillin corresponds to the 100% value. Due to the concentration of moxidectin detected in the hepatocytes (ng.ml^−1) and to the initially introduced percentage of radioactivity, the time-concentration areas under the curve are calculated from the first to the last experimental point using the trapezoidal method (Gibaldi and Perrier, 1982).

murine Pgp (Mdr1a) = murine Pgp (Mdr1a) (Mus musculus, UniProt P21447); assay: Intracellular accumulation of rhodamine 123 in Mdr1a-LLCPK1 cells (Pgp transport function); type: cell-based; settings: mouse, probe rhodamine 123 (10 μM); Hill model; reached at 50 μM of fumagillin; read-out: maximum effect (Emax), Rho123 accumulation as percentage of the VSP effect
murine Pgp (Mdr1a), sequence (P21447 whole entry): as above
Experimental: as §1, §2

SMILES: O=c1c(O)c(-c2ccc(O)c(O)c2)oc2cc(O)cc(O)c12 [quercetin]
effect on the quantity of 14C moxidectin in the hepatocytes of rats (rat hepatocytes [1]): significantly increases

SMILES: CC(=O)N1CCN(c2ccc(OCC3COC(Cn4ccnc4)(c4ccc(Cl)cc4Cl)O3)cc2)CC1 (stereo not drawn) [ketoconazole]
effect on the quantity of 14C moxidectin in the hepatocytes of rats (rat hepatocytes [1]): significantly increases

Rho 123 accumulation, maximum value taken as reference (murine Pgp; VSP 10 μM, considered to be the maximum value by definition): 100%
SMILES: C/C=C/C[C@@H](C)C(=O)[C@H]1C(=O)N[C@@H](C(C)C)C(=O)N(C)CC(=O)N(C)[C@@H](CC(C)C)C(=O)N[C@@H](C(C)C)C(=O)N(C)[C@@H](CC(C)C)C(=O)N[C@@H](C)C(=O)N[C@H](C)C(=O)N(C)[C@@H](CC(C)C)C(=O)N(C)[C@@H](CC(C)C)C(=O)N(C)[C@@H](C(C)C)C(=O)N1C [VSP, Valspodar]

SMILES: CO[C@@H]1[C@H](OC(=O)/C=C/C=C/C=C/C=C/C(=O)O)CC[C@]2(CO2)[C@H]1[C@@]1(C)O[C@@H]1CC=C(C)C [fumagillin]
increase of the quantity of moxidectin in the hepatocytes (time-concentration area under the curve) (rat hepatocytes [2]; 100 μM fumagillin with 5 μM 14C moxidectin, over a period of 72 h, versus moxidectin control): 65% | Emax at 2 h, 50 μM (murine Pgp (Mdr1a)): 43.7% | EC50 (murine Pgp; Rho123 accumulation in Mdr1a-LLCPK1, Hill model, read-out: EC50, concentration necessary to reach 50% of the maximum effect): 10 µM | effect on the quantity of intracellular Rho 123 (murine Pgp; fumagillin 10 to 100 μM): increased

time of maximum quantity of intracellular moxidectin (rat hepatocytes [2]; rat): 6 h | quantity of 14C moxidectin in cultured rat hepatocytes (rat hepatocytes [2]; rat, 0 h, 5 μM): 4.5 ± 1.25 | quantity of 14C moxidectin in cultured rat hepatocytes (rat hepatocytes [2]; rat, 6 h, 5 μM): 72.95 ± 9.98 | main metabolite (C29 monohydroxyethyl) as share of the parent substance (rat hepatocytes [2]; rat, 24 h, 5 μM): ≤ 4% | quantity of 14C moxidectin in cultured rat hepatocytes (rat hepatocytes [2]; rat, 24 h, 5 μM): 52.60 ± 5.94 | quantity of 14C moxidectin in cultured rat hepatocytes (rat hepatocytes [2]; rat, 48 h, 5 μM): 22.19 ± 4.00 | quantity of 14C moxidectin in cultured rat hepatocytes (rat hepatocytes [2]; rat, 72 h, 5 μM): 11.98 ± 1.30
SMILES: CO/N=C1\C[C@]2(C[C@@H]3C[C@@H](C/C=C(\C)C[C@@H](C)/C=C/C=C4\CO[C@@H]5[C@H](O)C(C)=C[C@@H](C(=O)O3)[C@]45O)O2)O[C@H](/C(C)=C/C(C)C)[C@H]1C [Moxidectin, moxidectin]

SMILES: CC[C@H](C)[C@H]1O[C@]2(CC[C@@H]1C)C[C@@H]1C[C@@H](C/C=C(\C)[C@@H](O[C@H]3C[C@H](OC)[C@@H](O[C@H]4C[C@H](OC)[C@@H](O)[C@H](C)O4)[C@H](C)O3)[C@@H](C)/C=C/C=C3\CO[C@@H]4[C@H](O)C(C)=C[C@@H](C(=O)O1)[C@]34O)O2 [IVM, ivermectin]
effect on Rho 123 accumulation relative to the effect of VSP (murine Pgp; 5 μM IVM, Mdr1a-LLCPK1 cells, 2 h, 10 μM Rho123): 95%
